Legend:
[1] = molecular target: T1, p53-hMDM2 complex (Homo sapiens, UniProt Q00987); assay: 1D AIDA-NMR antagonist-induced dissociation assay; assay type: binding; conditions: p53 (res. 1-321) + Hdm2 (res. 1-125); FIG. 3
T1 construct: complex of p53 (res. 1-321)+Hdm2 (res. 1-125)

[2] = Aqueous solubility; assay type: physicochemical; conditions: PB11 compared with PB2
Source text: The present inventor rationalized, therefore, that derivatization of an inventive compound to a more hydrophilic drugable molecule, for instance via amidation of a carboxylic acid group or the amidation of an ester group could potentially improve water solubility, binding affinity and bioavailability. See below for synthetic methodology.

[3] = molecular target: Hdm2 (Homo sapiens, UniProt Q00987); conditions: KD; method for each compound in column 'Method of KD calculation' (bin. titr., AIDA, FP, SPR)
Sequence of Hdm2 (Q00987 1-125): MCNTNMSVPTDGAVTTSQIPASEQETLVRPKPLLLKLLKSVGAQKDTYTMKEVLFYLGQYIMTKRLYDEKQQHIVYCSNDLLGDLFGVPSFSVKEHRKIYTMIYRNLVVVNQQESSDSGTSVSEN
Description: The affinities of imidazoline compounds of the present invention towards MDM2 or MDM4 proteins was measured by 2D H^1—N^15 HSQC NMR spectroscopy.
Water suppression was carried out using the WATERGATE sequence. NMR spectra were acquired at 300 K on a Bruker DRX 600 MHz spectrometer equipped with a cryoprobe and the data was processed using the Bruker program Xwin-NMR V. 3.5.
NMR ligand binding experiments were carried out in an analogous way to those previously described. […] For instance, 500 μL of the protein sample, at a concentration of about 0.1 mM, in 10% D2O and a 20 mM stock solution of nutin-3 (purchased from Cayman Chemical, MI) in DMSO-d6 were used in all experiments. […]
For example, 500 μL of the protein sample, at a concentration of about 0.1 mM, in 10% D2O and a 20 mM stock solution of nutin-3 (purchased from Cayman Chemical, MI) in DMSO-d6 were used in all of the experiments. […] The ^1H—^15N—HSQC spectra were recorded using fast HSQC pulse sequence as described by Mori et al., J. Magn. […]
The fluorescence intensities parallel (Intparallel) and perpendicular (Intperpedicular) to the plane of excitation were measured in black 384-well NBS assay plates (Corning) at room temperature (˜20° C.). […]
All fluorescence polarization values were expressed in millipolarization units (mP). […] Plates were read at 30 min after mixing all assay components. […]

T1 sequence (Q00987 1-125, one chain of several): as the sequence (Q00987 1-125) above

| SMILES | disruption of p53-hMDM2 complex (reappearance of Trp23 peak of p53) [1] | water solubility [2] | Binding to Hdm2 [3] |
| --- | --- | --- | --- |
| CC(C)C[C@@]1(C(=O)NCCc2ccncc2)N=CN(CC2CC2)C1c1ccc(Cl)cc1 (mixture of isomers) [PB11, cis-5-(4-chlorophenyl)-1-(cyclopropylmethyl)-4-isobutyl-N-(2-(pyridin-4-yl)ethyl)-4,5-dihydro-1H-imidazole-4-carboxamide] | dissociation of the p53-hMDM2 complex | improved | – |
| Oc1ccc2ccc(Br)cc2c1C(NCC1CC1)c1ccc(Cl)cc1 (stereo not shown) [PB13, 7-Bromo-1-[(4-chlorophenyl)(cyclopropylmethylamino)methyl]naphthalen-2-ol] | – | – | precipitation |
| O=C1C(c2ccc(Cl)cc2)C(c2cc3ccc(Cl)cc3[nH]2)N1c1ccc(Cl)cc1 (stereo not shown) [PB15, 4-(6-Chloro-1H-indol-2-yl)-1,3-bis-(4-chlorophenyl)azetidin-2-one] | – | – | precipitation |

Reference: US20130211079A1, “SUBSTITUTED HETEROCYCLES AS THERAPEUTIC AGENTS FOR TREATING CANCER” (priority 2010, published 2013)
